Patent publication US12343430B2, “Methods of improving pharmaceutical substance solubilization and products thereof” (MUDANJIANG LINRUN PHARAMA EXCIPIENTS LLC., priority 2019, dated 2025)
Converted amounts (≈) assume the structure as drawn.

Tests used:
[1] = Solubility time profile of co-attrited Carbamazepine at 37° C. (Example 12); format: physicochemical; details: 100 mL DI water, 0.45 μm filter, UV 285 nm
Excerpt: All the final extrudant samples from Examples 8-11 were milled into powder and passed through an 80 mesh screen. […] At each sampling time, the solution sample was taken and filtered through a 0.45 μm syringe microfilter. […] For reference, the API Carbamazepine sample was used as control.

[2] = Solubility time profile of co-attrited Carbamazepine at 25° C., HPLC (Example 14); format: physicochemical; details: 500 mL DI water, paddle 100 rpm
Excerpt: At each time interval, a given amount of solution was sampled and tested by an HPLC method.

Work on `NC(=O)N1c2ccccc2C=Cc2ccccc21` [Carbamazepine API, Carbamazepine] yielded a Solubility ([1]; 60 min) of 320 µg/mL (≈ 1350 µM), a Solubility ([1]; 180 min) of 288 µg/mL (≈ 1220 µM) and a solubility at 5 min ([1]; deionised water, thermodynamic from solid, 5 min) of 404 µg/mL (≈ 1710 µM). For the same molecule, the solubility at 10 min ([1]; deionised water, thermodynamic from solid, 10 min) was 402 µg/mL (≈ 1700 µM), the solubility at 15 min ([1]; deionised water, thermodynamic from solid, 15 min) was 401 µg/mL (≈ 1700 µM) and the solubility at 90 min ([1]; deionised water, thermodynamic from solid, 90 min) was 316 µg/mL (≈ 1340 µM). The solubility at 120 min ([1]; deionised water, thermodynamic from solid, 120 min) was 303 µg/mL (≈ 1280 µM), the “Solubility, drug concentration” value ([2]; 15 minutes) was 225.68 µg/mL (≈ 955 µM) and the “Solubility, drug concentration” value ([2]; 30 minutes) was 202.16 µg/mL (≈ 856 µM). It also gave a solubility at 5 min ([2]; deionised water, thermodynamic from solid, 5 minutes, read-out: Solubility, drug concentration) of 89.2 µg/mL (≈ 377 µM), a solubility at 10 min ([2]; deionised water, thermodynamic from solid, 10 minutes, read-out: Solubility, drug concentration) of 176 µg/mL (≈ 743 µM) and a solubility at 45 min ([2]; deionised water, thermodynamic from solid, 45 minutes, read-out: Solubility, drug concentration) of 175 µg/mL (≈ 741 µM). It also gave a solubility at 60 min ([2]; deionised water, thermodynamic from solid, 60 minutes, read-out: Solubility, drug concentration) of 173 µg/mL (≈ 731 µM).
